Test results from US20020120147A1, “Micronized torsemide” (priority 2000, published 2002).

Assays:
[1] = background statement; cited from earlier work
[2] = particle size after micronization in a micronizer; type: physicochemical; conditions: pure dry torsemide micronized in a micronizer (Example 1)
Excerpt: Pure dry torsemide was micronized in a micronizer. The result was micronized torsemide of a particle size of less than 5 micrometer.

| particle size [2] | Structure (SMILES) | solubility in water [1] |
| --- | --- | --- |
|  | Cc1cccc(Nc2ccncc2S(=O)(=O)NC(=O)NC(C)C)c1 [Torsemide, 1-Isopropyl-3-[(4-m-toluidino-3-pyridyl)sulfonyl] urea] | essentially insoluble |
| less than 5 micrometer | Cc1cccc(Nc2ccncc2S(=O)(=O)NC(=O)NC(C)C)c1 [micronized torsemide, 1-Isopropyl-3-[(4-m-toluidino-3-pyridyl)sulfonyl] urea] |  |
